Literature values in US20140287088A1, “Calcium Citrate-Malate as source of calcium to prevent bone diseases and increase bone strength in young animals and birds, especially young poultry, dogs, cats, swine, calves, and horses; and laying hens” (priority 2013, published 2014).

Assays:
rats = details: by 12 wk
[1] = humans; CCM-fortified food vs food fortified with calcium carbonate

calcium citrate-malate [CC-M]
more trabecular bone than rats fed calcium carbonate (rats): 44% | calcium absorption and retention [1]: significantly greater
